Measurements from PubChem BioAssay AID252 (DTP/NCI, 2004).
Several values for one entry are separate records, joined by “and”; a condition that tells them apart may be missing. Equal values may be shown once. Toxic doses and inconclusive results are not listed.

Test system: BDF1 mice, intracerebral L1210 leukemia, survival T/C
Assay: NCI In Vivo Anticancer Drug Screen. Data for tumor model L1210 Leukemia (intracerebral) in B6D2F1 (BDF1) mice
Settings: higher = longer survival
Outline: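 Readout is the T/C ratio: survival of compound-treated animals over that of vehicle-treated controls, in mice bearing transplantable tumour.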

[1] = endpoint: mean survival time, dose: 15.0 mg/kg/injection, schedule: Q01DX001 (ip), vehicle: other
[2] = endpoint: mean survival time, dose: 25.0 mg/kg/injection, schedule: Q01DX001 (ip), vehicle: other
[3] = endpoint: mean survival time, dose: 167.0 mg/kg/injection, schedule: Q01DX001 (ip), vehicle: carboxymethylcellulose (CMC)
[4] = endpoint: mean survival time, dose: 250.0 mg/kg/injection, schedule: Q01DX001 (ip), vehicle: carboxymethylcellulose (CMC)
[5] = endpoint: mean survival time, dose: 117.0 mg/kg/injection, schedule: Q01DX001 (ip), vehicle: carboxymethylcellulose (CMC)

O=NN(CCCl)C(=O)Nc1ccccc1
T/C (endpoint: mean survival time, dose: 8.0 mg/kg/injection, schedule: Q01DX001 (ip), vehicle: carboxymethylcellulose (CMC)): 97 % of control
T/C (endpoint: mean survival time, dose: 12.0 mg/kg/injection, schedule: Q01DX001 (ip), vehicle: carboxymethylcellulose (CMC)): 101 % of control
T/C (endpoint: mean survival time, dose: 18.0 mg/kg/injection, schedule: Q01DX001 (ip), vehicle: carboxymethylcellulose (CMC)): 107 % of control and 96 % of control
T/C (endpoint: mean survival time, dose: 36.0 mg/kg/injection, schedule: Q01DX001 (ip), vehicle: carboxymethylcellulose (CMC)): 95 % of control
T/C (endpoint: mean survival time, dose: 72.0 mg/kg/injection, schedule: Q01DX001 (ip), vehicle: carboxymethylcellulose (CMC)): 93 % of control

O=NN(CCCl)C(=O)NC1CSCSC1
T/C (endpoint: mean survival time, dose: 2.0 mg/kg/injection, schedule: Q01DX001 (ip), vehicle: other): 103 % of control and 98 % of control
T/C [1]: 153 % of control and 196 % of control
T/C (endpoint: mean survival time, dose: 22.0 mg/kg/injection, schedule: Q01DX001 (ip), vehicle: other): 360 % of control and 379 % of control
T/C (endpoint: mean survival time, dose: 50.0 mg/kg/injection, schedule: Q01DX001 (ip), vehicle: other): 89 % of control

O=NN(CCCl)C(=O)N[C@@H]1CCCC[C@H]1O
T/C (endpoint: mean survival time, dose: 12.0 mg/kg/injection, schedule: Q01DX001 (ip), vehicle: saline with Tween-80): 350 % of control
T/C (endpoint: mean survival time, dose: 18.0 mg/kg/injection, schedule: Q01DX001 (ip), vehicle: saline with Tween-80): 463 % of control
T/C (endpoint: mean survival time, dose: 26.0 mg/kg/injection, schedule: Q01DX001 (ip), vehicle: saline with Tween-80): 175 % of control

CN(C)/N=N/c1nc[nH]c1C(N)=O
T/C (endpoint: mean survival time, dose: 53.0 mg/kg/injection, schedule: Q01DX Z (ip), vehicle: carboxymethylcellulose (CMC)): 106 % of control
T/C (endpoint: mean survival time, dose: 80.0 mg/kg/injection, schedule: Q01DX Z (ip), vehicle: carboxymethylcellulose (CMC)): 104 % of control
T/C (endpoint: mean survival time, dose: 120.0 mg/kg/injection, schedule: Q01DX Z (ip), vehicle: carboxymethylcellulose (CMC)): 112 % of control
T/C (endpoint: mean survival time, dose: 180.0 mg/kg/injection, schedule: Q01DX Z (ip), vehicle: carboxymethylcellulose (CMC)): 93 % of control
T/C (endpoint: mean survival time, dose: 317.0 mg/kg/injection, schedule: Q01DX001 (ip), vehicle: carboxymethylcellulose (CMC)): 101 % of control
T/C (endpoint: mean survival time, dose: 482.0 mg/kg/injection, schedule: Q01DX001 (ip), vehicle: carboxymethylcellulose (CMC)): 87 % of control
T/C (endpoint: median survival time, dose: 10.0 mg/kg/injection, schedule: Q01DX009 (ip), vehicle: carboxymethylcellulose (CMC)): 111 % of control
T/C (endpoint: median survival time, dose: 20.0 mg/kg/injection, schedule: Q01DX009 (ip), vehicle: carboxymethylcellulose (CMC)): 111 % of control
T/C (endpoint: median survival time, dose: 40.0 mg/kg/injection, schedule: Q01DX009 (ip), vehicle: carboxymethylcellulose (CMC)): 114 % of control
T/C (endpoint: median survival time, dose: 80.0 mg/kg/injection, schedule: Q01DX009 (ip), vehicle: carboxymethylcellulose (CMC)): 117 % of control
T/C (endpoint: median survival time, dose: 160.0 mg/kg/injection, schedule: Q01DX009 (ip), vehicle: carboxymethylcellulose (CMC)): 118 % of control
T/C (endpoint: median survival time, dose: 200.0 mg/kg/injection, schedule: Q01DX009 (ip), vehicle: carboxymethylcellulose (CMC)): 103 % of control
T/C (endpoint: median survival time, dose: 300.0 mg/kg/injection, schedule: Q01DX009 (ip), vehicle: carboxymethylcellulose (CMC)): 94 % of control
T/C (endpoint: median survival time, dose: 320.0 mg/kg/injection, schedule: Q01DX009 (ip), vehicle: carboxymethylcellulose (CMC)): 108 % of control
T/C (endpoint: median survival time, dose: 400.0 mg/kg/injection, schedule: Q01DX009 (ip), vehicle: carboxymethylcellulose (CMC)): 111 % of control
T/C (endpoint: median survival time, dose: 600.0 mg/kg/injection, schedule: Q01DX009 (ip), vehicle: carboxymethylcellulose (CMC)): 94 % of control

O=NN(CCCl)C(=O)NC1C=CCCC1 (stereo not given)
T/C [1]: 110 % of control
T/C (endpoint: mean survival time, dose: 20.0 mg/kg/injection, schedule: Q01DX001 (ip), vehicle: other): 118 % of control
T/C [2]: 122 % of control
T/C (endpoint: mean survival time, dose: 30.0 mg/kg/injection, schedule: Q01DX001 (ip), vehicle: other): 118 % of control
T/C (endpoint: mean survival time, dose: 35.0 mg/kg/injection, schedule: Q01DX001 (ip), vehicle: other): 123 % of control

O=NN1CCCNC1=O
T/C (endpoint: mean survival time, dose: 75.0 mg/kg/injection, schedule: Q01DX001 (ip), vehicle: carboxymethylcellulose (CMC)): 119 % of control
T/C (endpoint: mean survival time, dose: 111.0 mg/kg/injection, schedule: Q01DX001 (ip), vehicle: carboxymethylcellulose (CMC)): 117 % of control
T/C (endpoint: mean survival time, dose: 150.0 mg/kg/injection, schedule: Q01DX001 (ip), vehicle: carboxymethylcellulose (CMC)): 153 % of control
T/C [3]: 186 % of control
T/C [4]: 91 % of control

CCCCCCCCCCCCCCCCCCCCCC(=O)Nc1ccn(C2OC(CO)C(O)C2O)c(=O)n1 (stereo not given)
T/C (endpoint: median survival time, dose: 25.0 mg/kg/injection, schedule: Q01DX009 (ip), vehicle: saline with Tween-80): 208 % of control
T/C (endpoint: median survival time, dose: 50.0 mg/kg/injection, schedule: Q01DX009 (ip), vehicle: saline with Tween-80): 162 % of control
T/C (endpoint: median survival time, dose: 100.0 mg/kg/injection, schedule: Q01DX009 (ip), vehicle: saline with Tween-80): 198 % of control
T/C (endpoint: median survival time, dose: 200.0 mg/kg/injection, schedule: Q01DX009 (ip), vehicle: saline with Tween-80): 250 % of control
T/C (endpoint: median survival time, dose: 400.0 mg/kg/injection, schedule: Q01DX009 (ip), vehicle: saline with Tween-80): 96 % of control

O=NN(CCCl)C(=O)NC1[C@H](O)CCC[C@@H]1O (stereo not given in full)
T/C (endpoint: mean survival time, dose: 2.6 mg/kg/injection, schedule: Q01DX001 (ip), vehicle: saline): 123 % of control
T/C (endpoint: mean survival time, dose: 4.0 mg/kg/injection, schedule: Q01DX001 (ip), vehicle: saline): 112 % of control
T/C (endpoint: mean survival time, dose: 9.0 mg/kg/injection, schedule: Q01DX001 (ip), vehicle: saline): 156 % of control
T/C (endpoint: mean survival time, dose: 14.0 mg/kg/injection, schedule: Q01DX001 (ip), vehicle: saline): 388 % of control
T/C (endpoint: mean survival time, dose: 22.0 mg/kg/injection, schedule: Q01DX001 (ip), vehicle: saline): 324 % of control

Nc1nc2n[nH]nc2c(=O)[nH]1
T/C (endpoint: mean survival time, dose: 89.0 mg/kg/injection, schedule: Q01DX015 (ip), vehicle: water): 170 % of control
T/C [5]: 108 % of control
T/C (endpoint: mean survival time, dose: 179.0 mg/kg/injection, schedule: Q01DX001 (ip), vehicle: carboxymethylcellulose (CMC)): 107 % of control
T/C (endpoint: mean survival time, dose: 267.0 mg/kg/injection, schedule: Q01DX001 (ip), vehicle: carboxymethylcellulose (CMC)): 105 % of control

O=NN(CCF)C(=O)NC1CC2CCC1C2 (stereo not given)
T/C (endpoint: mean survival time, dose: 5.7 mg/kg/injection, schedule: Q01DX001 (ip), vehicle: other): 106 % of control
T/C (endpoint: mean survival time, dose: 11.5 mg/kg/injection, schedule: Q01DX001 (ip), vehicle: other): 115 % of control
T/C (endpoint: mean survival time, dose: 16.5 mg/kg/injection, schedule: Q01DX001 (ip), vehicle: other): 162 % of control
T/C (endpoint: mean survival time, dose: 23.0 mg/kg/injection, schedule: Q01DX001 (ip), vehicle: other): 161 % of control
T/C [2]: 252 % of control
T/C (endpoint: mean survival time, dose: 37.0 mg/kg/injection, schedule: Q01DX001 (ip), vehicle: other): 274 % of control
T/C (endpoint: mean survival time, dose: 37.5 mg/kg/injection, schedule: Q01DX001 (ip), vehicle: other): 321 % of control
T/C (endpoint: mean survival time, dose: 46.0 mg/kg/injection, schedule: Q01DX001 (ip), vehicle: other): 309 % of control
T/C (endpoint: mean survival time, dose: 70.0 mg/kg/injection, schedule: Q01DX001 (ip), vehicle: other): 312 % of control
T/C (endpoint: mean survival time, dose: 126.0 mg/kg/injection, schedule: Q01DX001 (ip), vehicle: other): 312 % of control

CCOC1=C(N2CC2)C(=O)C(OCC)=C(N2CC2)C1=O
T/C (endpoint: mean survival time, dose: 0.25 mg/kg/injection, schedule: Q01DX009 (ip), vehicle: saline): 96 % of control
T/C (endpoint: mean survival time, dose: 0.5 mg/kg/injection, schedule: Q01DX009 (ip), vehicle: saline): 109 % of control and 93 % of control
T/C (endpoint: mean survival time, dose: 1.0 mg/kg/injection, schedule: Q01DX009 (ip), vehicle: saline): 108 % of control and 98 % of control
T/C (endpoint: mean survival time, dose: 2.0 mg/kg/injection, schedule: Q01DX009 (ip), vehicle: saline): 112 % of control
T/C (endpoint: mean survival time, dose: 4.0 mg/kg/injection, schedule: Q01DX009 (ip), vehicle: saline): 94 % of control

Cc1cccc(C)c1NC(=O)N(CCCl)N=O
T/C (endpoint: mean survival time, dose: 13.0 mg/kg/injection, schedule: Q01DX001 (ip), vehicle: carboxymethylcellulose (CMC)): 113 % of control
T/C (endpoint: mean survival time, dose: 20.0 mg/kg/injection, schedule: Q01DX001 (ip), vehicle: carboxymethylcellulose (CMC)): 112 % of control
T/C (endpoint: mean survival time, dose: 30.0 mg/kg/injection, schedule: Q01DX001 (ip), vehicle: carboxymethylcellulose (CMC)): 119 % of control

O=C(Nc1ccc(C2=NCCN2)cc1)c1cccc(C(=O)Nc2ccc(C3=NCCN3)cc2)c1
T/C (endpoint: mean survival time, dose: 31.0 mg/kg/injection, schedule: Q01DX Z (ip), vehicle: water): 89 % of control

CNC(=O)NC(=O)N(C)N=O
T/C (endpoint: mean survival time, dose: 15.0 mg/kg/injection, schedule: Q01DX001 (ip), vehicle: carboxymethylcellulose (CMC)): 105 % of control
T/C (endpoint: mean survival time, dose: 22.6 mg/kg/injection, schedule: Q01DX001 (ip), vehicle: carboxymethylcellulose (CMC)): 105 % of control
T/C (endpoint: mean survival time, dose: 34.0 mg/kg/injection, schedule: Q01DX001 (ip), vehicle: carboxymethylcellulose (CMC)): 98 % of control
T/C (endpoint: mean survival time, dose: 51.0 mg/kg/injection, schedule: Q01DX001 (ip), vehicle: carboxymethylcellulose (CMC)): 112 % of control
T/C (endpoint: mean survival time, dose: 77.0 mg/kg/injection, schedule: Q01DX001 (ip), vehicle: carboxymethylcellulose (CMC)): 109 % of control and 111 % of control
T/C [5]: 91 % of control
T/C (endpoint: mean survival time, dose: 175.0 mg/kg/injection, schedule: Q01DX001 (ip), vehicle: carboxymethylcellulose (CMC)): 87 % of control

N#CCCNC(=O)N(CCC#N)N=O
T/C [3]: 102 % of control
T/C [4]: 109 % of control
